In the assay the test system is Umbilical cord derived mesenchymal stem cells (UC-MSC). In words: Test 4: induction of oxidative stress resistance (Rotenone treatment, nucleus count). The assay is classed as cell-based. The settings on record: Rotenone 0 nM, 100 nM, 200 nM, 500 nM, 1 μM; after 48 hours; FIG. 11. How it is done:
(UC-MSC; Umbilical Cord derived Mesenchymal Stem Cells Wharton's Jelly (HMSC-WJ), FC-0020, LIFELINE CELL TECHNOLOGY Co., Ltd.; UC-MSC; Umbilical Cord derived Mesenchymal Stem Cells ScienCell Research Laboratories, Inc; and Umbilical Cord derived Mesenchymal Stem Cells ATCC) were conditioned with a recommended medium of each entity at 37° C. under 5% of CO2, and they were exchanged with the recommended medium of each entity or the medium of Example 1 (0.3-1×10^5 cells/well; 6 well plate). The passage was carried out every 2 to 3 days and those cells were treated with Rotenone of the following concentrations (0 nM, 100 nM, 200 nM, 500 nM, 1 μM). After 48 hours, these cells were stained with Hoechest33258 and the number of nucleus was counted using ImageXpress (Molecular Devices, LLC.).

`C=C(C)[C@H]1Cc2c(ccc3c2O[C@@H]2COc4cc(OC)c(OC)cc4[C@@H]2C3=O)O1` [Rotenone]: the “cell number of UC-MSC” value is “decreases in a concentration dependent manner”.

The record behind these values is patent US20180066231A1, “MESENCHYMAL STEM CELL CULTURE MEDIUM, METHODS FOR CULTURING MESENCHYMAL STEM CELLS, AND MESENCHYMAL STEM CELLS” (ROHTO PHARMACEUTICAL CO., LTD., priority 2015, published 2018).
